Read-outs that look alike come from different tables or passages of the source.
Test system: HCMV
Type: cell-based
Details: for IRS1 (P09715) protein level / TRS1 (P09695) protein level / UL13 (P16755) protein level / UL36 (P16767) protein level / UL37 (P16778) protein level / UL122 (P19893) protein level / UL123 (P13202) protein level: IE
Description: In example herpesvirus PRM assay methods shown herein, cell pellets were lysed in 2% SDS, 100 mM NaCl, 0.5 mM EDTA, 50 mM Tris, pH 8.2, and 50 μg of protein was reduced and alkylated with 25 mM TCEP and 50 mM CAM respectively for 20 min at 70° C. Proteins were then precipitated via methanol chloroform precipitation (Wessel & Flugg, Anal Biochem. 138(1):141-143, 1984), resuspended in 50 mM HEPES, pH 8.2 and digested overnight with trypsin (50:1 protein:enzyme w/w ratio). Digested peptides were desalted by SDB-RPS StageTip as previously described (Lum et al., Cell Syst., 7(6):[…], 2018; Greco et al., Methods Mol Biol 1410:39-63, 2016; Federspiel & Cristea, Methods Mol Biol., 1977:115-143, 2019).
Peptides (1.0 μg on column) were analyzed by LC-MS/MS using a Dionex Ultimate 3000 UHPLC coupled online to an EASYSpray ion source and a Q Exactive HF. Peptides were separated on an EASYSpray C18 column (75 μm×25 cm) heated to 50° C. using a linear gradient of 5% B to 32% B over 60 min at a flow rate of 250 nL/min and were ionized at 1.7 kv. Mobile phase A consisted of 0.1% FA in H2O and mobile phase B consisted of 0.1% FA, 2.9% H2O in ACN.
The PRM method was controlled by a peptide inclusion list with retention time windows of 6 min for selected precursor ions.
The PRM assay was developed and analyzed using the open-source software Skyline (Maclean et al., Bioinformatics 26(7):966-968, 2010). Summed area under the curve of 3-4 transitions per peptide was used for quantitation. Targeted peptides were normalized to host protein loading control peptides. Peptide values for each sample were scaled to the average of each peptide across all runs. The average of multiple peptides was used as the inferred value for the protein measurement when more than one peptide was quantified (Federspiel et al., PLoS Biol. 17(9):e3000437. Doi: 10.1371/journal.pbio.3000437). PRM quantitation data were graphed using the Python Seaborn and Matplotlib libraries.
MRC5 primary human fibroblasts (HFs) (ATCC CCL-171) were used as the model system for HSV-1 and HCMV infections and were cultured in complete growth medium (DMEM supplemented with 10% fetal bovine serum and 1% penicillin-streptomycin antibiotics) at 37° C. and 5% CO2. iSLK.219 cells harboring latent KSHV (a gift from Dr. Britt Glaunsinger, University of California, Berkeley) were grown in complete growth medium supplemented with 500 μg/ml hygromycin (ThermoFisher Scientific, 10687010) at 37° C. and 5% CO2. All cells were used for experiments within a maximum of 10 passages.
Wild type HSV-1 strain 17+ (a gift from Beate Sodeik, Hannover Medical School, Hannover, Germany) was propagated as previously described (Diner et al., 2015). Briefly, PO stocks were generated by electroporating pBAC-HSV-1 into U-2 OS cells. […] In a similar manner, wild type HCMV strain AD169 was produced from BAC electroporation into HFs and working stocks were propagated by infecting HFs at a low level. In both cases, cell-associated virus was released by sonication, combined with supernatant virus, then concentrated by ultracentrifugation (20,000 rpm, 2 hours, 4° C. with SW28 swinging bucket rotor [Beckman Coulter]) over a 10% ficoll (HSV-1) or 20% sorbitol (HCMV) cushion. Virus stock titers were determined by plaque assay for HSV-1 or tissue culture infectious dose (TCID50) for HCMV and infections were performed at a multiplicity of infection (MOI) of 3.
12 hours prior to virus infection or reactivation, cells were treated with either the small molecule drug or DMSO/PBS control at an equivalent volume. […] For infection cycles lasting longer than 24 hours, small molecule drugs were re-added to the cell culture medium every 24 hours. Upon collection, cells were rinsed with PBS, scraped into a microcentrifuge tube, pelleted by centrifugation, and rinsed again with PBS.

For `Nc1c(S(=O)(=O)c2ccccc2)c2nc3ccccc3nc2n1-c1ccc(F)cc1` [CAY10602], the “UL102 (P16827) protein level” value (timepoint 48, DE) was 0.7866, the “UL104 (P16735) protein level” value (timepoint 48, DE) was 0.07399 and the “UL112/UL113 (P17151) protein level” value (timepoint 48, DE) was 0.423. The “UL114 (P16769) protein level” value (timepoint 48, DE) was 0.7709, the “UL119/UL118 (P16739) protein level” value (timepoint 48, DE) was 0.3402 and the “UL128 (P16837) protein level” value (timepoint 48, DE) was 0.06729. The “US8 (P09730) protein level” value (timepoint 48, DE) was 0.8905, the “US9 (P09729) protein level” value (timepoint 48, DE) was 0.6117 and the “US12 (P09721) protein level” value (timepoint 48, DE) was 0.9446. For the same molecule, the “US13 (P09720) protein level” value (timepoint 48, DE) was 0.9123, the “US14 (P09719) protein level” value (timepoint 48, DE) was 0.1589 and the “US18 (P69334) protein level” value (timepoint 48, DE) was 0.5367. For the same molecule, the “US22 (P09722) protein level” value (timepoint 48, DE) was 0.542, the “US23 (P09701) protein level” value (timepoint 48, DE) was 0.4283 and the “US24 (P09700) protein level” value (timepoint 48, DE) was 0.42. For the same molecule, the “US34 (P09709) protein level” value (timepoint 48, DE) was 0.4118, the “gB (P06473) protein level” value (timepoint 48, DE) was 0.09671 and the “IRS1 (P09715) protein level” value (timepoint 48) was 0.5813. For the same molecule, the “TRS1 (P09695) protein level” value (timepoint 48) was 0.446, the “UL13 (P16755) protein level” value (timepoint 48) was 0.4405 and the “UL36 (P16767) protein level” value (timepoint 48) was 0.9117. The “UL37 (P16778) protein level” value (timepoint 48) was 0.7557, the “UL122 (P19893) protein level” value (timepoint 48) was 0.05121 and the “UL123 (P13202) protein level” value (timepoint 48) was 0.5672. For the same molecule, the “CVC1 (P16799) protein level” value (timepoint 48, L) was 0.1115, the “IR11 (P16809) protein level” value (timepoint 48, L) was 0.3707 and the “MCP (P16729) protein level” value (timepoint 48, L) was 0.006609. For the same molecule, the “SCP (Q7M6N6) protein level” value (timepoint 48, L) was 0.004793, the “TRM2 (P16792) protein level” value (timepoint 48, L) was 0.05665 and the “UL22A (P16845) protein level” value (timepoint 48, L) was 0.1015. The “UL25 (P16761) protein level” value (timepoint 48, L) was 0.0624, the “UL29 (P16764) protein level” value (timepoint 48, L) was 0.7556 and the “UL30 (P16765) protein level” value (timepoint 48, L) was 0.1538. The “UL31 (P16848) protein level” value (timepoint 48, L) was 0.1445, the “UL43 (P16781) protein level” value (timepoint 48, L) was 0.04992 and the “UL52 (P16793) protein level” value (timepoint 48, L) was 0.05111. The “UL80 (P16753) protein level” value (timepoint 48, L) was 0.03588, the “UL82 (P06726) protein level” value (timepoint 48, L) was 0.1061 and the “UL88 (P16731) protein level” value (timepoint 48, L) was 0.08754. For the same molecule, the “UL94 (P16800) protein level” value (timepoint 48, L) was 0.07429, the “UL99 (P13200) protein level” value (timepoint 48, L) was 0.05165 and the “UL103 (P16734) protein level” value (timepoint 48, L) was 0.1567. For the same molecule, the “UL117 (P16770) protein level” value (timepoint 48, L) was 0.383, the “gH (P12824) protein level” value (timepoint 48, L) was 0.06336 and the “gL (P16832) protein level” value (timepoint 48, L) was 0.05192. For the same molecule, the “gM (P16733) protein level” value (timepoint 48, L) was 0.02415, the “gN (P16795) protein level” value (timepoint 48, L) was 0.1118 and the “DUT (P16824) protein level” value (timepoint 48, LL) was 0.2582. For the same molecule, the “IR12 (P16810) protein level” value (timepoint 48, LL) was 0.2908, the “TRM3 (P16732) protein level” value (timepoint 48, LL) was 0.01695 and the “TRX1 (P16783) protein level” value (timepoint 48, LL) was 0.006112. For the same molecule, the “TRX2 (P16728) protein level” value (timepoint 48, LL) was 0.006041, the “UL24 (P16760) protein level” value (timepoint 48, LL) was 0.1155 and the “UL40 (P16780) protein level” value (timepoint 48, LL) was 0.63. For the same molecule, the “UL47 (P16784) protein level” value (timepoint 48, LL) was 0.02023, the “UL49 (P16786) protein level” value (timepoint 48, LL) was 0.187 and the “UL69 (P16749) protein level” value (timepoint 48, LL) was 0.1615. The “UL70 (P17149) protein level” value (timepoint 48, LL) was 0.3937, the “UL83 (P06725) protein level” value (timepoint 48, LL) was 0.02048 and the “UL132 (P69338) protein level” value (timepoint 48, LL) was 0.09662. The “US15 (P09718) protein level” value (timepoint 48, LL) was 0.5168, the “CVC2 (P16726) protein level” value (timepoint 72, DE) was 0.03983 and the “DBP (P17147) protein level” value (timepoint 72, DE) was 0.391. The “HELI (P16736) protein level” value (timepoint 72, DE) was 0.5709, the “IR01 (P09710) protein level” value (timepoint 72, DE) was 0.2588 and the “NEC2 (P16791) protein level” value (timepoint 72, DE) was 0.11. The “RIR1 (P16782) protein level” value (timepoint 72, DE) was 0.1099, the “TRM1 (P16724) protein level” value (timepoint 72, DE) was 0.1317 and the “UL4 (P17146) protein level” value (timepoint 72, DE) was 0.06765. The “UL26 (P16762) protein level” value (timepoint 72, DE) was 0.1023, the “UL32 (P08318) protein level” value (timepoint 72, DE) was 0.02678 and the “UL34 (P16812) protein level” value (timepoint 72, DE) was 0.09048. The “UL35 (P16766) protein level” value (timepoint 72, DE) was 0.02871, the “UL38 (P16779) protein level” value (timepoint 72, DE) was 0.5839 and the “UL44 (P16790) protein level” value (timepoint 72, DE) was 0.07887. For the same molecule, the “UL48 (P16785) protein level” value (timepoint 72, DE) was 0.0801, the “UL54 (P08546) protein level” value (timepoint 72, DE) was 0.6639 and the “UL71 (P16823) protein level” value (timepoint 72, DE) was 0.3054. The “UL78 (P16751) protein level” value (timepoint 72, DE) was 0.3616, the “UL84 (P16727) protein level” value (timepoint 72, DE) was 0.08785 and the “UL95 (P16801) protein level” value (timepoint 72, DE) was 0.157. The “UL96 (P16787) protein level” value (timepoint 72, DE) was 0.2632, the “UL97 (P16788) protein level” value (timepoint 72, DE) was 0.1687 and the “UL98 (P16789) protein level” value (timepoint 72, DE) was 0.2967. For the same molecule, the “UL102 (P16827) protein level” value (timepoint 72, DE) was 0.7626, the “UL104 (P16735) protein level” value (timepoint 72, DE) was 0.1005 and the “UL112/UL113 (P17151) protein level” value (timepoint 72, DE) was 0.3808. The “UL114 (P16769) protein level” value (timepoint 72, DE) was 0.6517, the “UL119/UL118 (P16739) protein level” value (timepoint 72, DE) was 0.4195 and the “UL128 (P16837) protein level” value (timepoint 72, DE) was 0.04728. For the same molecule, the “US8 (P09730) protein level” value (timepoint 72, DE) was 0.5794, the “US9 (P09729) protein level” value (timepoint 72, DE) was 0.5649 and the “US12 (P09721) protein level” value (timepoint 72, DE) was 0.4239. For the same molecule, the “US13 (P09720) protein level” value (timepoint 72, DE) was 0.5351, the “US14 (P09719) protein level” value (timepoint 72, DE) was 0.1559 and the “US18 (P69334) protein level” value (timepoint 72, DE) was 0.5415. For the same molecule, the “US22 (P09722) protein level” value (timepoint 72, DE) was 0.4813, the “US23 (P09701) protein level” value (timepoint 72, DE) was 0.3933 and the “US24 (P09700) protein level” value (timepoint 72, DE) was 0.3114. The “US34 (P09709) protein level” value (timepoint 72, DE) was 0.2066, the “gB (P06473) protein level” value (timepoint 72, DE) was 0.1022 and the “IRS1 (P09715) protein level” value (timepoint 72) was 0.5625. For the same molecule, the “TRS1 (P09695) protein level” value (timepoint 72) was 0.5284, the “UL13 (P16755) protein level” value (timepoint 72) was 0.3604 and the “UL36 (P16767) protein level” value (timepoint 72) was 0.601. For the same molecule, the “UL37 (P16778) protein level” value (timepoint 72) was 0.719, the “UL122 (P19893) protein level” value (timepoint 72) was 0.05427 and the “UL123 (P13202) protein level” value (timepoint 72) was 0.4451. The “CVC1 (P16799) protein level” value (timepoint 72, L) was 0.09678.
